# Assay results as given in ChEMBL document CHEMBL4138123, “Design, synthesis and biological evaluation of novel pyrazolochalcones as potential modulators of PI3K/Akt/mTOR pathway and inducers of apoptosis in breast cancer cells” (Eur J Med Chem, 2017).
# Columns and labels:
# Type in all cases: functional
# NCI-H460 = test: Cytotoxicity against human NCI-H460 cells assessed as cell growth at 0.01 uM after 48 hrs by sulforhodamine B assay relative to control; settings: NCI-H460, 48 h, read-out: Activity
# OVCAR-5 = test: Cytotoxicity against human OVCAR5 cells assessed as cell growth at 0.1 uM after 48 hrs by sulforhodamine B assay relative to control; settings: OVCAR-5, 48 h, read-out: Activity
# SR = test: Cytotoxicity against human SR cells assessed as cell growth at 0.01 uM after 48 hrs by sulforhodamine B assay relative to control; settings: read-out: Activity
# HT-29 = test: Cytotoxicity against human HT-29 cells assessed as cell growth at 100 uM after 48 hrs by sulforhodamine B assay relative to control; settings: HT-29, 48 h, read-out: Activity
# OVCAR-8 = test: Cytotoxicity against human OVCAR8 cells assessed as cell growth at 1 uM after 48 hrs by sulforhodamine B assay relative to control; settings: OVCAR-8, 48 h, read-out: Activity
# IGROV-1 [1] = test: Cytotoxicity against human IGROV1 cells assessed as cell growth at 10 uM after 48 hrs by sulforhodamine B assay relative to control; settings: IGROV-1, 48 h, read-out: Activity
# SW-620 = test: Cytotoxicity against human SW620 cells assessed as cell growth at 0.1 uM after 48 hrs by sulforhodamine B assay relative to control; settings: SW-620, 48 h, read-out: Activity
# SK-OV-3 = test: Cytotoxicity against human SKOV3 cells assessed as cell growth at 0.01 uM after 48 hrs by sulforhodamine B assay relative to control; settings: SK-OV-3, 48 h, read-out: Activity
# TK-10 = test: Cytotoxicity against human TK10 cells assessed as cell growth at 1 uM after 48 hrs by sulforhodamine B assay relative to control; settings: TK-10, 48 h, read-out: Activity
# RPMI-8226 [2] = test: Cytotoxicity against human RPMI8226 cells assessed as cell growth at 10 uM after 48 hrs by sulforhodamine B assay relative to control; settings: RPMI-8226, 48 h, read-out: Activity
# BT-549 [3] = test: Cytotoxicity against human BT549 cells assessed as cell growth at 0.01 uM after 48 hrs by sulforhodamine B assay relative to control; settings: BT-549, 48 h, read-out: Activity
# SF-539 = test: Cytotoxicity against human SF539 cells assessed as cell growth at 100 uM after 48 hrs by sulforhodamine B assay relative to control; settings: SF-539, 48 h, read-out: Activity
# UO-31 = test: Cytotoxicity against human UO31 cells assessed as growth inhibition after 48 hrs by sulforhodamine B assay; settings: UO-31, 48 h
# UACC-62 = test: Cytotoxicity against human UACC62 cells assessed as cell growth at 0.1 uM after 48 hrs by sulforhodamine B assay relative to control; settings: UACC-62, 48 h, read-out: Activity
# K562 [4] = test: Cytotoxicity against human K562 cells assessed as cell growth at 100 uM after 48 hrs by sulforhodamine B assay relative to control; settings: K562, 48 h, read-out: Activity
# NCI-H23 [5] = test: Cytotoxicity against human NCI-H23 cells assessed as cell growth at 0.1 uM after 48 hrs by sulforhodamine B assay relative to control; settings: NCI-H23, 48 h, read-out: Activity
# A549 = test: Cytotoxicity against human A549/ATCC cells assessed as cell growth at 0.1 uM after 48 hrs by sulforhodamine B assay relative to control; settings: A549, 48 h, read-out: Activity
# K562 [6] = test: Cytotoxicity against human K562 cells assessed as cell growth at 0.1 uM after 48 hrs by sulforhodamine B assay relative to control; settings: K562, 48 h, read-out: Activity
# IGROV-1 [7] = test: Cytotoxicity against human IGROV1 cells assessed as cell growth at 1 uM after 48 hrs by sulforhodamine B assay relative to control; settings: IGROV-1, 48 h, read-out: Activity
# IGROV-1 [8] = test: Cytotoxicity against human IGROV1 cells assessed as cell growth at 0.1 uM after 48 hrs by sulforhodamine B assay relative to control; settings: IGROV-1, 48 h, read-out: Activity
# NCI-H23 [9] = test: Cytotoxicity against human NCI-H23 cells assessed as cell growth at 1 uM after 48 hrs by sulforhodamine B assay relative to control; settings: NCI-H23, 48 h, read-out: Activity
# M14 = test: Cytotoxicity against human M14 cells assessed as cell growth at 100 uM after 48 hrs by sulforhodamine B assay relative to control; settings: M14, 48 h, read-out: Activity
# 786-0 = test: Cytotoxicity against human 786-0 cells assessed as growth inhibition after 48 hrs by sulforhodamine B assay; settings: 786-0, 48 h
# CCRF-CEM = test: Cytotoxicity against human CCRF-CEM cells assessed as cell growth at 0.01 uM after 48 hrs by sulforhodamine B assay relative to control; settings: read-out: Activity
# SF-268 = test: Cytotoxicity against human SF268 cells assessed as cell growth at 0.1 uM after 48 hrs by sulforhodamine B assay relative to control; settings: SF-268, 48 h, read-out: Activity
# U-251 = test: Cytotoxicity against human U251 cells assessed as growth inhibition after 48 hrs by sulforhodamine B assay; settings: U-251, 48 h
# RPMI-8226 [10] = test: Cytotoxicity against human RPMI8226 cells assessed as cell growth at 1 uM after 48 hrs by sulforhodamine B assay relative to control; settings: RPMI-8226, 48 h, read-out: Activity
# BT-549 [11] = test: Cytotoxicity against human BT549 cells assessed as growth inhibition after 48 hrs by sulforhodamine B assay; settings: BT-549, 48 h
# SK-MEL-28 = test: Cytotoxicity against human SK-MEL-28 cells assessed as cell growth at 100 uM after 48 hrs by sulforhodamine B assay relative to control; settings: SK-MEL-28, 48 h, read-out: Activity
# SNB-19 = test: Cytotoxicity against human SNB19 cells assessed as growth inhibition after 48 hrs by sulforhodamine B assay; settings: SNB-19, 48 h; for CC50: read-out: LC50 (the source's name)
# IGROV-1 [12] = test: Cytotoxicity against human IGROV1 cells assessed as cell growth at 0.01 uM after 48 hrs by sulforhodamine B assay relative to control; settings: IGROV-1, 48 h, read-out: Activity
# PC-3 = test: Cytotoxicity against human PC3 cells assessed as cell growth at 0.1 uM after 48 hrs by sulforhodamine B assay relative to control; settings: PC-3, 48 h, read-out: Activity
# COLO 205 = test: Cytotoxicity against human COLO205 cells assessed as cell growth at 1 uM after 48 hrs by sulforhodamine B assay relative to control; settings: COLO 205, 48 h, read-out: Activity
# HCC 2998 = test: Cytotoxicity against human HCC2998 cells assessed as cell growth at 0.01 uM after 48 hrs by sulforhodamine B assay relative to control; settings: HCC 2998, 48 h, read-out: Activity
# ACHN = test: Cytotoxicity against human ACHN cells assessed as cell growth at 100 uM after 48 hrs by sulforhodamine B assay relative to control; settings: read-out: Activity
SMILES,growth at 0.01 µM (NCI-H460) [%],growth at 0.1 µM (OVCAR-5) [%],growth at 0.01 µM (SR) [%],growth at 100 µM (HT-29) [%],growth at 1 µM (OVCAR-8) [%],growth at 10 µM (IGROV-1 [1]) [%],growth at 0.1 µM (SW-620) [%],growth at 0.01 µM (SK-OV-3) [%],growth at 1 µM (TK-10) [%],growth at 10 µM (RPMI-8226 [2]) [%],growth at 0.01 µM (BT-549 [3]) [%],growth at 100 µM (SF-539) [%],LC50 (UO-31) [µM],TGI (UO-31) [µM],growth at 0.1 µM (UACC-62) [%],growth at 100 µM (K562 [4]) [%],growth at 0.1 µM (NCI-H23 [5]) [%],growth at 0.1 µM (A549) [%],growth at 0.1 µM (K562 [6]) [%],growth at 1 µM (IGROV-1 [7]) [%],further results
COc1cc(-c2cc(/C=C/C(=O)c3ccc(F)c(F)c3)[nH]n2)cc(OC)c1OC,106,93,100,-67,89,14,97,98,85,-21,101,-63,> 100,14.2,93,-7,92,98,109,95,growth at 0.1 µM (IGROV-1 [8]): 97%; growth at 1 µM (NCI-H23 [9]): 90%; growth at 100 µM (M14): -38%; LC50 (786-0): > 100 µM; TGI (786-0): 15.7 µM; growth at 0.01 µM (CCRF-CEM): 99%; growth at 0.1 µM (SF-268): 94%; LC50 (U-251): > 100 µM; TGI (U-251): 15.7 µM; growth at 1 µM (RPMI-8226 [10]): 73%; LC50 (concentration killing 50% of cells) (BT-549 [11]): 79.5 µM; TGI (BT-549 [11]): 19.3 µM; growth at 100 µM (SK-MEL-28): -39%; TGI (SNB-19): > 100 µM; CC50 (SNB-19): > 100 µM; growth at 0.01 µM (IGROV-1 [12]): 97%; growth at 0.1 µM (PC-3): 93%; growth at 1 µM (COLO 205): 92%; growth at 0.01 µM (HCC 2998): 83%
COc1cc(C(=O)/C=C/c2cc(-c3cc(OC)c(OC)c(OC)c3)n[nH]2)cc(OC)c1OC,102,101,111,-58,81,1,97,100,80,-38,102,-99,5.16,2.48,95,1,101,94,104,99,growth at 100 µM (ACHN): -98%; growth at 0.1 µM (IGROV-1 [8]): 103%; growth at 1 µM (NCI-H23 [9]): 97%; growth at 100 µM (M14): -88%; LC50 (786-0): 6.76 µM; TGI (786-0): 3.25 µM; growth at 0.01 µM (CCRF-CEM): 96%; growth at 0.1 µM (SF-268): 99%; LC50 (U-251): 5.67 µM; TGI (U-251): 2.96 µM; growth at 1 µM (RPMI-8226 [10]): 17%; LC50 (concentration killing 50% of cells) (BT-549 [11]): 5.6 µM; TGI (BT-549 [11]): 2.96 µM; growth at 100 µM (SK-MEL-28): -97%; TGI (SNB-19): 3.69 µM; CC50 (SNB-19): 8.2 µM; growth at 0.01 µM (IGROV-1 [12]): 104%; growth at 0.1 µM (PC-3): 92%; growth at 1 µM (COLO 205): 98%; growth at 0.01 µM (HCC 2998): 102%
